Results on eleven compounds are retold here after PMC8259857, “Anti-tubercular activity and molecular docking studies of indolizine derivatives targeting mycobacterial InhA enzyme” (Journal of Enzyme Inhibition and Medicinal Chemistry, 2021).

In brackets after ≈: the same amount, converted by molar mass. Where only a bound is given, the exact number is not on record here.

For this assay, the system named is MDR-MTB (rifampicin and isoniazid-resistant MTB strain). Briefly: microbe, parasite or virus in culture. The class given is cell-based, Mycobacterium tuberculosis. As to conditions: for MIC MDR-MTB: isolates resistant to rifampicin (1 μg/mL) and isoniazid (0.2 μg/mL), NA: not active at the concentration range (0.2–64 μg/mL); for MIC: Mycobacterium tuberculosis, read-out: MIC MDR-MTB; for fold reduced MDR-MTB activity compared to H37Rv MTB strain: MIC MDR-MTB versus MIC H37Rv.

With `CCOC(=O)c1cc(C(=O)c2ccc(C#N)cc2)n2ccccc12` [Compound 2f], the “MIC MDR-MTB” value is “completely abolished the activity”.

For the compound `CCOC(=O)c1c(C)c(C(=O)c2ccc(Cl)cc2)n2ccccc12` [Compound 3b], the “MIC MDR-MTB” value was “inactive”.

Turning to `CCOC(=O)c1c(C(=O)OCC)c2ccccn2c1C(=O)c1ccc([N+](=O)[O-])cc1` [Compound 4c, Diethyl-3-(4-nitrobenzoyl)indolizine-1,2-dicarboxylate], the MIC was found to be 64 µg/mL (≈ 156 µM).

On to `CCOC(=O)c1c(C(=O)OCC)c2ccccn2c1C(=O)c1ccc(Cl)cc1` [Compound 4b, Diethyl-3-(4-chlorobenzoyl)indolizine-1,2-dicarboxylate], for which the MIC was found to be 16 µg/mL (≈ 40 µM).

Consider `CCOC(=O)c1c(C)c(C(=O)c2ccc([N+](=O)[O-])cc2)n2ccccc12` [Compound 3d], for which the “MIC MDR-MTB” value was “inactive”.

Turning to `CCOC(=O)c1cc(C(=O)c2ccc([N+](=O)[O-])cc2)n2ccccc12` [Compound 2d], the “fold reduced MDR-MTB activity compared to H37Rv MTB strain” value came out at 8 fold and the MIC came out at 64 µg/mL (≈ 189 µM).

Turning to `CCOC(=O)c1cc(C(=O)c2ccc(C)cc2)n2ccccc12` [Compound 2e], the “MIC MDR-MTB” value is “completely abolished the activity”.

Consider `CCOC(=O)c1c(C(=O)OCC)c2ccccn2c1C(=O)c1ccc(F)cc1` [Compound 4a, Diethyl-3-(4-fluorobenzoyl)indolizine-1,2-dicarboxylate], for which the MIC is 16 µg/mL (≈ 41.7 µM).

In the case of `CCOC(=O)c1c(C)c(C(=O)c2ccc(F)cc2)n2ccccc12` [Compound 3a], the “fold reduced MDR-MTB activity compared to H37Rv MTB strain” value is reported as 8 fold and the MIC was 32 µg/mL (≈ 98.4 µM).

In the case of `CO[C@H]1/C=C/O[C@@]2(C)Oc3c(C)c(O)c4c(O)c(c(/C=N/N5CCN(C)CC5)c(O)c4c3C2=O)NC(=O)/C(C)=C\C=C\[C@H](C)[C@H](O)[C@@H](C)[C@@H](O)[C@@H](C)[C@H](OC(C)=O)[C@@H]1C` [Rifampicin, reference compound], the MIC is no less than 1 µg/mL.

Turning to `NNC(=O)c1ccncc1` [Isoniazid, reference compound], the MIC was no less than 0.2 µg/mL.
